# Assay results from patent US5874272A, “Inosine-guanosine kinase” (Kyowa Hakko Kogyo Co., Ltd., priority 1998, dated 1999).
# Assays:
# Assay type in all cases: biochemical
# inosine-guanosine kinase [1] = biological target: T1, inosine-guanosine kinase (Escherichia coli, UniProt P0AEW6); assay: Substrate specificity (phosphate-donor / phosphate-acceptor); conditions: for suitability as phosphate-donor (in words): 5 mM phosphate source instead of ATP, 300 mM KCl, 30° C., inosine as acceptor; for suitability as phosphate-acceptor (in words): ATP or dATP as phosphate-donor
# T1 construct: made in house; host or cells: Escherichia coli
# T1 sequence (P0AEW6 1-434): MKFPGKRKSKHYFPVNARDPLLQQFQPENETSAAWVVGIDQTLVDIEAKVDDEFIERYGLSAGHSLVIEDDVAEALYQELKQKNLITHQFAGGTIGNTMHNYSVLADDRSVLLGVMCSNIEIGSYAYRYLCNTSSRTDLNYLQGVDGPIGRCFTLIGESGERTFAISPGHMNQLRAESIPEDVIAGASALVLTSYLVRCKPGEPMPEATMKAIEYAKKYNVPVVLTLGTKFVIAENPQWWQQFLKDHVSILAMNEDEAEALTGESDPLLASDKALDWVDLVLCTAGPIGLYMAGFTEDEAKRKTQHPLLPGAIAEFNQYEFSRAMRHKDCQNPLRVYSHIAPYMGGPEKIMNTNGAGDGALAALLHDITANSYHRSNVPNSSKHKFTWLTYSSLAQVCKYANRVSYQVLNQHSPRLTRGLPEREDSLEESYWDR
# Description: (§1) The activity of the inosine-guanosine kinase obtained is determined as follows. A reaction solution (hereafter referred to as reaction solution a) having a composition of 100 mM HEPES buffer (pH 7.2), 10 mM MgSO4, 50 mM KCl, 1 mM ATP and 1 mM inosine is brought into contact with the inosine-guanosine kinase in a concentration of about 10 μg protein/ml followed by reaction at 30° C. for about 30 minutes. During the course of reaction, a part of the reaction solution is subjected to sampling intermittently. After the reaction solution is diluted to 1/20 with 0.2M NaH2 PO4 (adjusted the pH to 2.6 with H3 PO4) to stop the reaction, an amount of 5'-IMP in the stopped reaction solution is quantitatively determined by HPLC. Analysis by HPLC is made by using 0.2M NaH2 PO4 (pH 2.6) at a flow rate of 1 ml/min. as an eluting solution and Asahipak GS-320H (manufactured by Asahi Chemical Co., Ltd.) as a column. Detection of components was made by the absorbance at UV absorbance at 254 nm as an index. Quantitative determination was made by comparing absorbancy with that of the standard.
# In the method for determination of inosine-guanosine kinase activity described above, a reaction is carried out at 30° C. by changing the concentration of KCl to 300 mM in the composition of reaction solution a and adding various neutralized phosphate sources to the reaction solution instead of ATP in a final concentration of 5 mM. […] Where ATP or dATP is used as phosphate-donor, inosine and guanosine are preferred as phosphate-acceptor.
# FIG. 1 relates to substrate specificity for inosine-guanosine kinase, wherein the ordinate represents an amount of 5'-IMP produced and the abscissa represents time.
# inosine-guanosine kinase [2] = biological target: T1, inosine-guanosine kinase; assay: Effect of added metal salts on inosine-guanosine kinase activity (inhibitor test); conditions: 300 mM KCl; for Relative Activity (%): 1 mM metal salt added to reaction solution a, 30° C., 30 minutes, no metal salt = 100; for inhibition of the enzyme by metal ions (in words): 1 mM metal salt
# Description: as §1
# In the method for determination of inosine-guanosine kinase activity described above, the activity is determined by reacting at 30° C. for 30 minutes except that the concentration of KCl is changed to 300 mM and 1 mM metal salt is added to the composition of reaction solution a. The activity is determined as a standard when no metal salt is added. The enzyme is inhibited by metal ions such as CO^2+, Cu^2+, Zn^2+, etc.
# inosine-guanosine kinase [3] = biological target: T1, inosine-guanosine kinase; assay: Activation of inosine-guanosine kinase by divalent or trivalent metal ion salts instead of MgSO4; conditions: for Produced IMP: 10 mM metal salt instead of MgSO4, 300 mM KCl; for activating action on the enzyme (in words): metal ion salt instead of MgSO4, 300 mM KCl
# Description: as §1
# In the method for determination of inosine-guanosine kinase activity described above, a reaction is carried out by changing the buffer to Tris-hydrochloride buffer (pH 8.0), and varying the concentration of KCl in the composition of reaction solution a. […] Next, activation is examined in the system where the concentration of KCl is changed to 300 mM in the composition of reaction solution a, by adding various divalent or trivalent metal ion salts instead of MgSO4.
# inosine-guanosine kinase [4] = biological target: T1, inosine-guanosine kinase; assay: K+ (KCl) dependency of inosine-guanosine kinase; conditions: Tris-hydrochloride buffer (pH 8.0); KCl varied, or 100 mM NaCl instead of KCl
# Description: as §1
# In the method for determination of inosine-guanosine kinase activity described above, a reaction is carried out by changing the buffer to Tris-hydrochloride buffer (pH 8.0), and varying the concentration of KCl in the composition of reaction solution a. […]
SMILES,suitability as phosphate-donor (in words) (inosine-guanosine kinase [1]),Relative Activity (%) (inosine-guanosine kinase [2]),Produced IMP (inosine-guanosine kinase [3]),also measured
"Nc1ncnc2c1ncn2[C@@H]1O[C@H](COP(=O)(O)O)[C@@H](O)[C@H]1O [5'-AMP, adenosine monophosphate]",could not be phosphate-donors,,,
"Nc1ccn([C@@H]2O[C@H](COP(=O)(O)O)[C@@H](O)[C@H]2O)c(=O)n1 [5'-CMP, cytidine monophosphate]",could not be phosphate-donors,,,
"O=C(O)c1cc(=O)[nH]c(=O)n1[C@@H]1O[C@H](COP(=O)(O)O)[C@@H](O)[C@H]1O [5'-OMP, orotic acid monophosphate]",could not be phosphate-donors,,,
"Nc1ncnc2c1ncn2[C@@H]1O[C@H](COP(=O)(O)OP(=O)(O)O)[C@@H](O)[C@H]1O [ADP, adenosine diphosphate]",could not be phosphate-donors,,,
"Nc1ncnc2c1ncn2[C@@H]1O[C@H](COP(=O)(O)OP(=O)(O)OP(=O)(O)O)[C@@H](O)[C@H]1O [ATP, adenosine triphosphate]",good substrate,,,
[Ba+2].[Cl-].[Cl-] [BaCl2],,116%,0 mM,
[Co+2] [CO^2+],,,,inhibition of the enzyme by metal ions (in words) (inosine-guanosine kinase [2]): inhibited
[Ca+2].[Cl-].[Cl-] [CaCl2],,107%,0 mM,
[Cl-].[Cl-].[Co+2] [CoCl2],,32%,0.01 mM,
[Cl][Cu][Cl] [CuCl2],,1%,0 mM,
[Cu+2] [Cu^2+],,,,inhibition of the enzyme by metal ions (in words) (inosine-guanosine kinase [2]): inhibited
[Cl][Fe][Cl] [FeCl2],,112%,0 mM,
[Cl][Fe]([Cl])[Cl] [FeCl3],,131%,0 mM,
"Nc1nc2c(ncn2[C@@H]2O[C@H](COP(=O)(O)OP(=O)(O)OP(=O)(O)O)[C@@H](O)[C@H]2O)c(=O)[nH]1 [GTP, guanosine triphosphate]",could not be phosphate-donors,,,
[K+] [K^+],,,,monovalent cation requirement for activation (in words) (inosine-guanosine kinase [4]): requires
[Cl-].[Cl-].[Mg+2] [MgCl2],,,0.60 mM,
O=S(=O)([O-])[O-].[Mg+2] [MgSO4],,,0.68 mM,
[Mg+2] [Mg^2+],,,,activating action on the enzyme (in words) (inosine-guanosine kinase [3]): exhibit an activating action

SMILES,suitability as phosphate-donor (in words) (inosine-guanosine kinase [1]),Relative Activity (%) (inosine-guanosine kinase [2]),Produced IMP (inosine-guanosine kinase [3]),also measured
[Cl][Mn][Cl] [MnCl2],,134%,0.51 mM,
O=S(=O)([O-])[O-].[Mn+2] [MnSO4],,,0.64 mM,
[Mn+2] [Mn^2+],,,,activating action on the enzyme (in words) (inosine-guanosine kinase [3]): exhibit an activating action
[Cl-].[Na+] [NaCl],,104%,,monovalent cation requirement for activation (in words) (inosine-guanosine kinase [4]): no reaction proceeds
[F-].[Na+] [NaF],,96%,,
"O=c1ccn([C@@H]2O[C@H](COP(=O)(O)OP(=O)(O)OP(=O)(O)O)[C@@H](O)[C@H]2O)c(=O)[nH]1 [UTP, uridine triphosphate]",the reaction proceeds a little bit,,,
CC(=O)[O-].CC(=O)[O-].[Zn+2] [Zn(CH3 COO)2],,5%,0 mM,
O=S(=O)([O-])[O-].[Zn+2] [ZnSO4],,5%,0 mM,
[Zn+2] [Zn^2+],,,,inhibition of the enzyme by metal ions (in words) (inosine-guanosine kinase [2]): inhibited
CC(=O)OP(=O)(O)O [acetylphosphoric acid],could not be phosphate-donors,,,
"Nc1ncnc2c1ncn2[C@H]1C[C@H](O)[C@@H](COP(=O)(O)OP(=O)(O)OP(=O)(O)O)O1 [dATP, deoxyadenosine triphosphate]",good substrate,,,
Nc1nc2c(ncn2[C@@H]2O[C@H](CO)[C@@H](O)[C@H]2O)c(=O)[nH]1 [guanosine],,,,suitability as phosphate-acceptor (in words) (inosine-guanosine kinase [1]): preferred
OC[C@H]1O[C@@H](n2cnc3c(O)ncnc32)[C@H](O)[C@@H]1O [inosine],,,,suitability as phosphate-acceptor (in words) (inosine-guanosine kinase [1]): preferred
O=P(O)(O)O [phosphoric acid],could not be phosphate-donors,,,
O=P(O)(O)OP(=O)(O)O [pyrophosphoric acid],could not be phosphate-donors,,,
O=P(O)(O)OP(=O)(O)OP(=O)(O)OP(=O)(O)O [tetrapolyphosphoric acid],could not be phosphate-donors,,,
O=P(O)(O)OP(=O)(O)OP(=O)(O)O [tripolyphosphoric acid],could not be phosphate-donors,,,
